What was measured:
Experiment in all cases: relative viability (nuclei count vs DMSO), 5 days (fraction); higher = more cells survive
[1] = compound: Cn1cnc2c(F)c(Nc3ccc(Br)cc3Cl)c(C(=O)NOCCO)cc21 [Selumetinib] + Cc1nc(Nc2ncc(C(=O)Nc3c(C)cccc3Cl)s2)cc(N2CCN(CCO)CC2)n1 [Dasatinib] (partner 0.075 µM)
Summary of the method: (§1)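 After 5 days of treatment, lung cancer cells in 1536-well plates were fixed and stained in a single step (final 0.05% Triton X-100, 1% formaldehyde, 1 ug/ml Hoechst) and their nuclei counted on 4× images. Treatment had been applied by pin tool the day after seeding as one drug alone or as a fixed anchor-drug dose with five library-drug doses (not always all listed) in √10 steps. Relative viability is the nuclei count of treated wells divided by that of vehicle wells, and values are medians of duplicate plates.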

[2] = compound: CC1(C)CCC(CN2CCN(c3ccc(C(=O)NS(=O)(=O)c4ccc(NCC5CCOCC5)c([N+](=O)[O-])c4)c(Oc4cnc5[nH]ccc5c4)c3)CC2)=C(c2ccc(Cl)cc2)C1 [Venetoclax] + CC(C)C[C@H](NC(=O)[C@H](Cc1ccccc1)NC(=O)c1cnccn1)B(O)O [Bortezomib] (partner 0.002 µM)
Summary of the method: as §1

[3] = compound: CC1(C)CCC(CN2CCN(c3ccc(C(=O)NS(=O)(=O)c4ccc(NCC5CCOCC5)c([N+](=O)[O-])c4)c(Oc4cnc5[nH]ccc5c4)c3)CC2)=C(c2ccc(Cl)cc2)C1 [Venetoclax] + CS(=O)(=O)N1CCN(Cc2cc3nc(-c4cccc5[nH]ncc45)nc(N4CCOCC4)c3s2)CC1 [Pictilisib] (partner 1 µM)
Summary of the method: as §1

[4] = compound: CC1(C)CCC(CN2CCN(c3ccc(C(=O)NS(=O)(=O)c4ccc(NCC5CCOCC5)c([N+](=O)[O-])c4)c(Oc4cnc5[nH]ccc5c4)c3)CC2)=C(c2ccc(Cl)cc2)C1 [Venetoclax] + O=C(c1cc(Cc2n[nH]c(=O)c3ccccc23)ccc1F)N1CCN(C(=O)C2CC2)CC1 [Olaparib] (partner 8 µM)
Summary of the method: as §1

Cell Line	relative viability ([1]; first compound 0.02 µM)	relative viability ([1]; first compound 0.06325 µM)	relative viability ([1]; first compound 0.2 µM)	relative viability ([1]; first compound 0.6325 µM)	relative viability ([2]; first compound 0.01 µM)	relative viability ([2]; first compound 0.03162 µM)	relative viability ([2]; first compound 0.1 µM)	relative viability ([2]; first compound 0.3162 µM)	relative viability ([2]; first compound 1 µM)	relative viability ([3]; first compound 0.01 µM)	relative viability ([3]; first compound 0.03162 µM)	relative viability ([3]; first compound 0.1 µM)	relative viability ([3]; first compound 0.3162 µM)	relative viability ([3]; first compound 1 µM)	relative viability ([4]; first compound 0.01 µM)	relative viability ([4]; first compound 0.03162 µM)	relative viability ([4]; first compound 0.1 µM)	relative viability ([4]; first compound 0.3162 µM)	relative viability ([4]; first compound 1 µM)
NCI-H661	0.902	0.821	0.805	0.731	0.722	0.762	0.717	0.799	0.646	0.466	0.446	0.455	0.415	0.347	0.745	0.789	0.715	0.74	0.708
HCC-827	0.24	0.331	0.26	0.294	1.04	1.06	1.08	1.11	1.01	1.01	1.31	0.912	0.929	1.02	0.647	0.703	0.642	0.603	0.655
NCI-H1915	0.302	0.281	0.225	0.174	0.972	0.965	0.908	0.971	0.919	0.953	0.911	0.894	0.979	0.92	0.275	0.288	0.264	0.272	0.231
NCI-H441	0.602	0.363	0.41	0.307	0.651	0.91	0.532	0.451	0.476	0.611	0.479	0.431	0.46	0.444	0.627	0.646	0.568	0.611	0.582
RERF-LC-KJ	0.883	0.792	0.714	0.766	1.08	1.31	1.19	1.22	1.05	0.523	0.607	0.512	0.513	0.571	0.883	0.839	0.934	0.935	0.847
NCI-H3122	0.712	0.702	0.684	0.534	1.06	0.968	1.01	0.985	1.02	0.797	0.619	0.576	0.568	0.683	0.644	0.671	0.637	0.667	0.603
NCI-H2347	0.262	0.189	0.184	0.191	0.927	1.5	1.14	1.03	1.02	0.606	0.606	0.668	0.746	0.123	0.578	0.558	0.514	0.633	0.537
NCI-H1651	0.387	0.378	0.402	0.362	1.02	0.952	1.03	0.976	0.885	0.6	0.626	0.481	0.482	0.533	0.157	0.204	0.171	0.171	0.188
EKVX	0.469	0.567	0.371	0.276	1.04	1.05	1.04	1.14	0.842	0.451	0.432	0.423	0.469	0.395	0.93	0.908	0.817	0.855	0.819
NCI-H1437	0.334	0.231	0.197	0.215	0.451	0.572	0.475	0.42	0.492	0.538	0.443	0.435	0.386	0.404	0.607	0.616	0.624	0.615	0.601
NCI-H23	0.808	0.644	0.5	0.397	0.95	0.952	1.06	1.07	0.9	0.595	0.501	0.381	0.479	0.508	0.311	0.26	0.367	0.376	0.304
EPLC-272H	0.294	0.297	0.355	0.174		0.957	0.852	0.872	0.947		0.3	0.327	0.403	0.33	0.63	0.697	0.803	0.786	0.83
H3255	0.41	0.358	0.329	0.344	0.784	0.855	0.626	0.825	0.644	0.47	0.527	0.457	0.486	0.482	0.626	0.576	0.545	0.597	0.566
SK-LU-1	0.177	0.208	0.181	0.141	0.937	1.19	1.24	1.34	1.08	0.558	0.634	0.524	0.592	0.511	0.447	0.665	0.477	0.574	0.623
NCI-H727	0.308	0.299	0.267	0.279	0.938	1.19	0.833	0.862	0.888	0.354	0.419	0.404	0.37	0.398	0.758	0.801	0.803	0.836	0.641
PC-3 [JPC-3]	0.974	0.99	0.976	0.841	0.764	0.822	0.794	0.771	0.829	0.643	0.872	0.787	0.782	0.67	1.15	1.19	1.21	1.15	1.04
COR-L 105	0.328	0.239	0.224	0.22	0.867	0.902	0.751	0.777	0.691	0.409	0.526	0.367	0.406	0.468	0.518	0.718	0.709	0.691	0.674
NCI-H322M	0.248	0.237	0.24	0.263	1.37	1.18	1.27	1.2	1.2	0.558	0.511	0.488	0.532	0.487	0.738	0.799	0.76	0.764	0.785
NCI-H838	0.275	0.254	0.304	0.267	0.949	0.957	0.73	0.801	0.797	0.661	0.48	0.474	0.465	0.534	0.784	0.758	0.824	0.776	0.764
NCI-H1993	0.545	0.534	0.572	0.609	1.05	1.19	0.988	1.04	1.02	1.03	0.802	0.8	0.685	0.78	1.03	0.952	0.986	0.99	1.08
CAL-12T	0.363	0.258	0.285	0.258	0.976	1.14	0.954	0.901	0.877	0.36	0.609	0.489	0.419	0.396	0.675	0.715	0.732	0.709	0.634
LCLC-97TM1	0.866	0.674	0.543	0.272		0.99	0.609	1.02	0.403		0.264	0.173	0.273	0.21	0.242	0.297	0.37	0.323	0.365
NCI-H1355	0.717	0.631	0.543	0.413	1.27	1.23	1.2	1.11	1.18	0.493	0.547	0.377	0.467	0.404	0.772	0.815	0.774	0.734	0.757
NCI-H596	0.625	0.546	0.565	0.483	1.01	0.857	0.979	1.14	1.14	0.402	0.408	0.354	0.391	0.364	0.764	0.709	0.711	0.696	0.759
NCI-H2085	0.25	0.23	0.204	0.215	0.976	1.14	1.07	0.923	0.946	0.458	0.48	0.417	0.507	0.502	0.676	0.758	0.744	0.755	0.75
201T	0.589	0.571	0.585	0.555	1.11	1.03	1.11	1.09	1.06	0.635	0.653	0.659	0.73	0.683	0.822	0.868	0.811	0.846	0.829
NCI-H2405	0.216	0.22	0.17	0.187	0.956	1.09	0.94	0.982	0.907	0.505	0.472		0.394	0.402	0.833	0.881	0.915	0.929	0.78
LXF-289	0.223	0.315	0.324	0.311	1.03	0.966	1	1.01	0.87	0.718	0.739	0.795	0.771	0.762	1.07	1.09	1.1	0.993	0.94
